Results published in ChEMBL document CHEMBL5729489, “Naphthyridinone derivatives and their use in the treatment of arrhythmia” (2022).

Target: T1, Kir3.1/Kir3.4 (Homo sapiens, UniProt P48544+P48549)
T1 sequence (P48549 whole entry): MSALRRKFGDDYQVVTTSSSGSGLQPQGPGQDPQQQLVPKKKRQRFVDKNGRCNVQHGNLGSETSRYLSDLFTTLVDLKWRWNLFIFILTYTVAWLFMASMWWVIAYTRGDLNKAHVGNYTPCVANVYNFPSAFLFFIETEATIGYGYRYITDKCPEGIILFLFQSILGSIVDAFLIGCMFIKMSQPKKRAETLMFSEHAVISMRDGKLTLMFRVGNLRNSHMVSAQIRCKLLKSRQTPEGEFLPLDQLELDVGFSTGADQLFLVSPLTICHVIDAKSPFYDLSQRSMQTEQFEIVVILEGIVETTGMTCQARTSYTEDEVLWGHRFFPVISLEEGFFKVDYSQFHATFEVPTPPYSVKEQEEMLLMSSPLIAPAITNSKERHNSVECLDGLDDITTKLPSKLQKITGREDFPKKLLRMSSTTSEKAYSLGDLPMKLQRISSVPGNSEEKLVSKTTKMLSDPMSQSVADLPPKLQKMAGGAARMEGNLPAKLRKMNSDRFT
T1 sequence (P48544 whole entry): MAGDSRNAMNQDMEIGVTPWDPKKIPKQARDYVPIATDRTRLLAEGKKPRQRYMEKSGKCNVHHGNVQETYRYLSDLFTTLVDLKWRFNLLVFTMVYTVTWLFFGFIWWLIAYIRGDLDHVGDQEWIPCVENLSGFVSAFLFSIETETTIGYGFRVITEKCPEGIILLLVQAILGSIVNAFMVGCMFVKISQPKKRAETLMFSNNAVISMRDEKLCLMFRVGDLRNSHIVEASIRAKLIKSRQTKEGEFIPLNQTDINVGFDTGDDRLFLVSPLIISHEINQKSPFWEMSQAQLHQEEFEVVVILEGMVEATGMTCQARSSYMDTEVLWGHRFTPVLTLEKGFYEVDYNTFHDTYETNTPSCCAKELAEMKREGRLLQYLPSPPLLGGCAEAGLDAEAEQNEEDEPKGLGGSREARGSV
Test: IonWorks Quattro system: Quattro is controlled using IonWorks v2 software to perform the following steps:a. Add 3.5 ul cells plus 3.5 ul external buffer to wells of Quattro Patch Plateb. Circulate amphotericin B and internal buffer onto cellsc. Apply the following voltage protocol: Pulse 1: 15 mV for 300 milliseconds (ms), followed by Pulse 2: −120 mV for 400 ms, then Pulse 3: −15 mV for 400 ms, and finally Pulse 4: −120 mV to 40 mV over 500 ms (this is a voltage ramp).d. Measure magnitude of inward potassium current at time point between 1200-1220 ms from start of Pulse 1 (i.e. during the voltage ramp phase).e. Add 3.5 ul of diluted compounds (or DMSO) to wells and repeat steps c-d (final compound concentrations are 50 uM to 0.1 uM, for potent compounds 0.5 uM to 0.01 uM and each concentration is tested in quadruplicate—i.e. in 4 separate wells).f. The difference between current magnitude pre vs. post-compound gives a measure of GIRK1/4 inhibition.7. Data analysis:IC50 values are calculated by plotting the percentage of current inhibition (normalized to the DMSO-only control) as a function of compound concentration using standard data analysis software.

| SMILES | IC50 |
| --- | --- |
| O=c1cc(CO)n(-c2c(Cl)cccc2Cl)c2c(Cl)cnc(OCC(CO)CO)c12 | 351 nM |
| CS(=O)(=O)NCCOc1ncc(Cl)c2c1c(=O)cc(CO)n2-c1c(Cl)cccc1Cl | 99 nM |
